In experiment [1] the target is T1, Aurora kinase A (Homo sapiens, UniProt O14965).
T1 sequence (O14965 whole entry): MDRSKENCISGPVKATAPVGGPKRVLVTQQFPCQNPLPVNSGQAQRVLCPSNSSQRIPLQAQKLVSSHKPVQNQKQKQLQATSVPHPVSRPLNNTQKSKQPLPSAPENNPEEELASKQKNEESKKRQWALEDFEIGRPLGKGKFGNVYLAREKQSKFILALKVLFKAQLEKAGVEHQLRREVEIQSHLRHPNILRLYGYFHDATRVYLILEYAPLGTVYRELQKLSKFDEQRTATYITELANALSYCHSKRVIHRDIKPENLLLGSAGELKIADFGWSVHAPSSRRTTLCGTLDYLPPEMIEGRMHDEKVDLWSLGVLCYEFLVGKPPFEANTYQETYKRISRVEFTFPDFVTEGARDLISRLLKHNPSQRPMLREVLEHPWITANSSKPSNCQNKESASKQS
Put plainly: Inhibition of aurora A kinase using 5TAMRA-GRTGRRNSICOOH as substrate by fluorescent assay.

For experiment [2], the target named is T2, Aurora kinase B (Homo sapiens, UniProt Q96GD4). Kind of experiment: Inhibition of aurora B kinase using 5TAMRA-GRTGRRNSICOOH as substrate by fluorescent assay.
T2 sequence (Q96GD4 whole entry): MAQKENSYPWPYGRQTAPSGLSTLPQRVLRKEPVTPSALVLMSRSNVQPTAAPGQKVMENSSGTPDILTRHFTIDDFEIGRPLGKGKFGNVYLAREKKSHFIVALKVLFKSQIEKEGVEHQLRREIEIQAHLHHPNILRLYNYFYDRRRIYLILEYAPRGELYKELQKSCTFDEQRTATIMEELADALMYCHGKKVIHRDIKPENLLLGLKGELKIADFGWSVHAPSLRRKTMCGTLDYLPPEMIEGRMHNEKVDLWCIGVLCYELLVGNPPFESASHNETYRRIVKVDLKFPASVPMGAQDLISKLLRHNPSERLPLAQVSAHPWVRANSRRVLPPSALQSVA
Experiment [3] deals with T2, Aurora kinase B. Put plainly: Inhibition of aurora B kinase in human HCT116 cells assessed as inhibition of histone H3 phosphorylation incubated for 1 hr by Hoechst 33342 staining based microscopic analysis. It is filed as cell-based, HCT-116.

Bounds are passed on as bounds.

As usually defined, the IC50 is the point on the concentration scale where inhibition reaches its midpoint. High values mean weaker potency, low ones greater potency. With `Cc1cn2c(-c3cnn(CC(=O)O)c3)cnc2c(Nc2cc(CN3CCCCC3)ns2)n1`, the IC50 in experiment [1] is 1830 nM; in experiment [2] it was 363 nM.
The matching figures for `Cc1cn2c(-c3cnn(CC(=O)O)c3)cnc2c(Nc2cc(CN3CCCC(C)C3)ns2)n1` (configuration not stated): 836 nM and 146 nM.
A word on the EC50: it is the concentration needed to bring the measured effect to its halfway point. Take `Cc1cn2c(-c3cnn(CC(N)=O)c3)cnc2c(Nc2cc(CN3CCCCC3)ns2)n1`: the EC50 in experiment [3] was greater than 1000 nM. The IC50 in experiment [1] turned out to be 1570 nM; in experiment [2], 28 nM.
`CNC(=O)Cn1cc(-c2cnc3c(Nc4cc(CN5CCCCC5)ns4)nc(C)cn23)cn1`: the half-inhibitory concentration (IC50) in experiment [1] is greater than 3000 nM; in experiment [2], 193 nM.
On to `Cc1cn2c(-c3cnn(CC(=O)NCCC(C)C)c3)cnc2c(Nc2cc(CN3CCCCC3)ns2)n1`, for which the EC50 in experiment [3] is greater than 1000 nM. Moreover, the values for the IC50 in experiment [1] and in experiment [2] were 1800 nM and 44 nM, respectively.
Take `Cc1cn2c(-c3cnn(CC(=O)N(C)C)c3)cnc2c(Nc2cc(CN3CCCCC3)ns2)n1`: the IC50 in experiment [1] and in experiment [2] was greater than 3000 nM in each case.
As to `Cc1cn2c(-c3cnn(CC(=O)NCCN(C)C)c3)cnc2c(Nc2cc(CN3CCCC(C)C3)ns2)n1` (configuration not stated), the IC50 in experiment [1] is greater than 3000 nM; in experiment [2], 761 nM.
The matching figures for `Cc1cn2c(-c3cnn(CC(=O)N4CCOCC4)c3)cnc2c(Nc2cc(CN3CCCCC3)ns2)n1`: greater than 3000 nM and greater than 3000 nM.
Consider `Cc1cn2c(-c3cnn(CC(=O)NCc4ccccc4)c3)cnc2c(Nc2cc(CN3CCCC(C)C3)ns2)n1` (configuration not stated), for which the EC50 in experiment [3] came out at 129 nM. For the same molecule, the IC50 was 21 nM in experiment [1] and no more than 13 nM in experiment [2].
As to `Cc1cn2c(-c3cnn(CC(=O)Nc4ccccc4)c3)cnc2c(Nc2cc(CN3CCCC(C)C3)ns2)n1` (configuration not stated), the EC50 in experiment [3] amounted to 327 nM. Besides, the IC50 is 34 nM in experiment [1] and 51 nM in experiment [2].
For `Cc1cn2c(-c3cnn(CC(=O)N(C)Cc4ccccc4)c3)cnc2c(Nc2cc(CN3CCCC(C)C3)ns2)n1` (configuration not stated), the results for the IC50 in experiment [1] and in experiment [2] were 1630 nM and 261 nM, respectively.
In the case of `Cc1cn2c(-c3cnn(Cc4nc5ccccc5[nH]4)c3)cnc2c(Nc2cc(CN3CCCC(C)C3)ns2)n1` (configuration not stated), the EC50 in experiment [3] is 534 nM. Further, the IC50 in experiment [1] was 18 nM; in experiment [2], no more than 13 nM.
`Cc1cn2c(-c3cnn(Cc4nc(-c5ccccc5)no4)c3)cnc2c(Nc2cc(CN3CCCCC3)ns2)n1`: in experiment [3], the EC50 is greater than 1000 nM. The IC50 in experiment [1] was no more than 4 nM; in experiment [2], no more than 13 nM.
`Cc1cn2c(-c3cnn(CC(=O)NCc4ccncc4)c3)cnc2c(Nc2cc(CN3CCCC(C)C3)ns2)n1` (configuration not stated): the figures for the IC50 in experiment [1] and in experiment [2] were 2450 nM and 1110 nM, respectively.
In the same order, the values of `Cc1cn2c(-c3cnn(CC(=O)NCc4ncco4)c3)cnc2c(Nc2cc(CN3CCCC(C)C3)ns2)n1` (configuration not stated) are 168 nM and 178 nM.
In the case of `Cc1cn2c(-c3cnn(CC(=O)NCc4ccco4)c3)cnc2c(Nc2cc(CN3CCCC(C)C3)ns2)n1` (configuration not stated), the IC50 in experiment [1] was found to be 213 nM; in experiment [2] it was 70 nM.
For the molecule `Cc1cn2c(-c3cnn(CC(=O)Nc4ccccc4F)c3)cnc2c(Nc2cc(CN3CCCCC3)ns2)n1`, the EC50 in experiment [3] turned out to be 388 nM. Further, the IC50 stood at 198 nM in experiment [1] and 35 nM in experiment [2].
In the same order, the values of `Cc1cn2c(-c3cnn(CC(=O)Nc4cccc(F)c4)c3)cnc2c(Nc2cc(CN3CCCCC3)ns2)n1` are 892 nM, 340 nM and no more than 13 nM.
Consider `Cc1cn2c(-c3cnn(CC(=O)Nc4ccc(F)cc4)c3)cnc2c(Nc2cc(CN3CCCCC3)ns2)n1`, for which the EC50 in experiment [3] worked out at 412 nM. The 50% inhibitory concentration (IC50) in experiment [1] was 53 nM; in experiment [2], 30 nM.
The matching figures for `Cc1cn2c(-c3cnn(CC(=O)Nc4cc(F)cc(F)c4)c3)cnc2c(Nc2cc(CN3CCCCC3)ns2)n1`: 2380 nM, 1220 nM and 94 nM.
The matching figures for `Cc1cn2c(-c3cnn(CC(=O)Nc4nccs4)c3)cnc2c(Nc2cc(CN3CCCC(C)C3)ns2)n1` (configuration not stated): greater than 1000 nM, 100 nM and no more than 13 nM.
As for `Cc1cn2c(-c3cnn(CC(=O)Nc4cccnn4)c3)cnc2c(Nc2cc(CN3CCCC(C)C3)ns2)n1` (configuration not stated), the EC50 in experiment [3] came to 951 nM. Also, the IC50 in experiment [1] is 638 nM; in experiment [2] it was 45 nM.
The matching figures for `Cc1cn2c(-c3cnn(CC(=O)Nc4ccccn4)c3)cnc2c(Nc2cc(CN3CCCC(C)C3)ns2)n1` (configuration not stated): 285 nM, 185 nM and 32 nM.
In the case of `Cc1cn2c(-c3cnn(CC(=O)Nc4cccnc4)c3)cnc2c(Nc2cc(CN3CCCC(C)C3)ns2)n1` (configuration not stated), the IC50 in experiment [1] is 186 nM; in experiment [2], 118 nM.
As to `Cc1cn2c(-c3cnn(CC(=O)Nc4cc[n+]([O-])cc4)c3)cnc2c(Nc2cc(CN3CCCC(C)C3)ns2)n1` (configuration not stated), in experiment [3], the EC50 was determined as 402 nM. Further, the IC50 in experiment [1] is 68 nM; in experiment [2], 91 nM.
As to `Cc1cn2c(-c3cnn(CC(=O)Nc4ccncc4O)c3)cnc2c(Nc2cc(CN3CCCC(C)C3)ns2)n1` (configuration not stated), the IC50 was 239 nM in experiment [1] and 282 nM in experiment [2].
Take `Cc1cn2c(-c3cnn(CC(=O)Nc4cccc(F)n4)c3)cnc2c(Nc2cc(CN3CCCC(C)C3)ns2)n1` (configuration not stated): the EC50 in experiment [3] was 164 nM. Also, the IC50 amounted to 102 nM in experiment [1] and 28 nM in experiment [2].
In the same order, the values of `Cc1cn2c(-c3cnn(CC(=O)Nc4cccnc4F)c3)cnc2c(Nc2cc(CN3CCCC(C)C3)ns2)n1` (configuration not stated) are 110 nM, 753 nM and 81 nM.
In the same order, the values of `Cc1cn2c(-c3cnn(Cc4noc(-c5ccccc5)n4)c3)cnc2c(Nc2cc(CN3CCCCC3)ns2)n1` are greater than 1000 nM, no more than 4 nM and no more than 13 nM.
In the same order, the values of `Cc1cn2c(-c3cnn(Cc4nc(-c5ccccc5)c[nH]4)c3)cnc2c(Nc2cc(CN3CCCCC3)ns2)n1` are 887 nM, 583 nM and 21 nM.
With `Cc1cn2c(-c3cnn(CC(=O)NCc4ccccc4F)c3)cnc2c(Nc2cc(CN3CCCCC3)ns2)n1`, the EC50 in experiment [3] came out at 469 nM. Also, the IC50 is 44 nM in experiment [1] and no more than 13 nM in experiment [2].
The matching figures for `Cc1cn2c(-c3cnn(CC(=O)NCc4cccc(F)c4)c3)cnc2c(Nc2cc(CN3CCCCC3)ns2)n1`: 234 nM, 30 nM and no more than 13 nM.
`Cc1cn2c(-c3cnn(CC(=O)NCc4ccc(F)cc4)c3)cnc2c(Nc2cc(CN3CCCCC3)ns2)n1`: the EC50 in experiment [3] came to 416 nM. Besides, the IC50 in experiment [1] was 40 nM; in experiment [2] it was no more than 13 nM.
In the same order, the values of `Cc1cn2c(-c3cnn(CC(=O)NCc4cccc(F)c4F)c3)cnc2c(Nc2cc(CN3CCCCC3)ns2)n1` are 870 nM, 45 nM and no more than 13 nM.
The matching figures for `Cc1cn2c(-c3cnn(CC(=O)NCc4cc(F)cc(F)c4)c3)cnc2c(Nc2cc(CN3CCCCC3)ns2)n1`: 389 nM, 22 nM and no more than 13 nM.
Regarding `Cc1cn2c(-c3cnn(CC(=O)NCc4cccc(C(F)(F)F)c4)c3)cnc2c(Nc2cc(CN3CCCC(C)C3)ns2)n1` (configuration not stated), in experiment [3], the EC50 is greater than 1000 nM. Besides, the values for the IC50 in experiment [1] and in experiment [2] were 413 nM and 35 nM, respectively.
`Cc1cn2c(-c3cnn(CC(=O)NCc4ccc(C(F)(F)F)cc4)c3)cnc2c(Nc2cc(CN3CCCC(C)C3)ns2)n1` (configuration not stated): the values for the IC50 in experiment [1] and in experiment [2] were greater than 3000 nM and 175 nM, respectively.
`Cc1cn2c(-c3cnn(CC(=O)NCc4cccc(N(C)C)c4)c3)cnc2c(Nc2cc(CN3CCCC(C)C3)ns2)n1` (configuration not stated): the IC50 in experiment [1] came out at 859 nM; in experiment [2], 155 nM.
Turning to `COc1cccc(CNC(=O)Cn2cc(-c3cnc4c(Nc5cc(CN6CCCC(C)C6)ns5)nc(C)cn34)cn2)c1` (configuration not stated), the EC50 in experiment [3] was 442 nM. For the same molecule, the results for the IC50 in experiment [1] and in experiment [2] were 57 nM and 41 nM, respectively.
In the case of `COc1ccc(CNC(=O)Cn2cc(-c3cnc4c(Nc5cc(CN6CCCC(C)C6)ns5)nc(C)cn34)cn2)cc1` (configuration not stated), the IC50 in experiment [1] was 1930 nM; in experiment [2], 161 nM.
Take `Cc1cn2c(-c3cnn(CC(=O)NCc4cccnc4)c3)cnc2c(Nc2cc(CN3CCCC(C)C3)ns2)n1` (configuration not stated): the IC50 in experiment [1] worked out at 434 nM; in experiment [2] it was 439 nM.
